According to US12421225B2, “Heteroaromatic amide derivative and medicament containing the same” (KAKEN PHARMACEUTICAL CO., LTD., priority 2018, dated 2025):

Tests used:
[1] = target: human Nav1.7 (Homo sapiens (Human), UniProt Q15858); assay: Human Nav1.7 inhibitory activity evaluation (automated patch clamp QPatch16X, HEK293A cells stably expressing human Nav1.7 and human Navβ1); assay type: cell-based
Method in brief: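 QPatch16X whole-cell recordings at room temperature from HEK293A cells stably expressing human Nav1.7 with Navβ1, CsF-based internal solution, pH 7.4 external, 0.1% DMSO. From −100 mV holding, protocol included a 15 s hold at a potential inactivating ~30-40% of channels; IC50 from inward current at the second −10 mV pulse.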

[2] = target: human Nav1.5 (Homo sapiens (Human), UniProt Q14524); assay: Human Nav1.5 inhibitory activity evaluation (automated patch clamp QPatch16X, HEK293 cells stably expressing human Nav1.5); assay type: cell-based
Sequence of human Nav1.5 (Q14524 whole entry): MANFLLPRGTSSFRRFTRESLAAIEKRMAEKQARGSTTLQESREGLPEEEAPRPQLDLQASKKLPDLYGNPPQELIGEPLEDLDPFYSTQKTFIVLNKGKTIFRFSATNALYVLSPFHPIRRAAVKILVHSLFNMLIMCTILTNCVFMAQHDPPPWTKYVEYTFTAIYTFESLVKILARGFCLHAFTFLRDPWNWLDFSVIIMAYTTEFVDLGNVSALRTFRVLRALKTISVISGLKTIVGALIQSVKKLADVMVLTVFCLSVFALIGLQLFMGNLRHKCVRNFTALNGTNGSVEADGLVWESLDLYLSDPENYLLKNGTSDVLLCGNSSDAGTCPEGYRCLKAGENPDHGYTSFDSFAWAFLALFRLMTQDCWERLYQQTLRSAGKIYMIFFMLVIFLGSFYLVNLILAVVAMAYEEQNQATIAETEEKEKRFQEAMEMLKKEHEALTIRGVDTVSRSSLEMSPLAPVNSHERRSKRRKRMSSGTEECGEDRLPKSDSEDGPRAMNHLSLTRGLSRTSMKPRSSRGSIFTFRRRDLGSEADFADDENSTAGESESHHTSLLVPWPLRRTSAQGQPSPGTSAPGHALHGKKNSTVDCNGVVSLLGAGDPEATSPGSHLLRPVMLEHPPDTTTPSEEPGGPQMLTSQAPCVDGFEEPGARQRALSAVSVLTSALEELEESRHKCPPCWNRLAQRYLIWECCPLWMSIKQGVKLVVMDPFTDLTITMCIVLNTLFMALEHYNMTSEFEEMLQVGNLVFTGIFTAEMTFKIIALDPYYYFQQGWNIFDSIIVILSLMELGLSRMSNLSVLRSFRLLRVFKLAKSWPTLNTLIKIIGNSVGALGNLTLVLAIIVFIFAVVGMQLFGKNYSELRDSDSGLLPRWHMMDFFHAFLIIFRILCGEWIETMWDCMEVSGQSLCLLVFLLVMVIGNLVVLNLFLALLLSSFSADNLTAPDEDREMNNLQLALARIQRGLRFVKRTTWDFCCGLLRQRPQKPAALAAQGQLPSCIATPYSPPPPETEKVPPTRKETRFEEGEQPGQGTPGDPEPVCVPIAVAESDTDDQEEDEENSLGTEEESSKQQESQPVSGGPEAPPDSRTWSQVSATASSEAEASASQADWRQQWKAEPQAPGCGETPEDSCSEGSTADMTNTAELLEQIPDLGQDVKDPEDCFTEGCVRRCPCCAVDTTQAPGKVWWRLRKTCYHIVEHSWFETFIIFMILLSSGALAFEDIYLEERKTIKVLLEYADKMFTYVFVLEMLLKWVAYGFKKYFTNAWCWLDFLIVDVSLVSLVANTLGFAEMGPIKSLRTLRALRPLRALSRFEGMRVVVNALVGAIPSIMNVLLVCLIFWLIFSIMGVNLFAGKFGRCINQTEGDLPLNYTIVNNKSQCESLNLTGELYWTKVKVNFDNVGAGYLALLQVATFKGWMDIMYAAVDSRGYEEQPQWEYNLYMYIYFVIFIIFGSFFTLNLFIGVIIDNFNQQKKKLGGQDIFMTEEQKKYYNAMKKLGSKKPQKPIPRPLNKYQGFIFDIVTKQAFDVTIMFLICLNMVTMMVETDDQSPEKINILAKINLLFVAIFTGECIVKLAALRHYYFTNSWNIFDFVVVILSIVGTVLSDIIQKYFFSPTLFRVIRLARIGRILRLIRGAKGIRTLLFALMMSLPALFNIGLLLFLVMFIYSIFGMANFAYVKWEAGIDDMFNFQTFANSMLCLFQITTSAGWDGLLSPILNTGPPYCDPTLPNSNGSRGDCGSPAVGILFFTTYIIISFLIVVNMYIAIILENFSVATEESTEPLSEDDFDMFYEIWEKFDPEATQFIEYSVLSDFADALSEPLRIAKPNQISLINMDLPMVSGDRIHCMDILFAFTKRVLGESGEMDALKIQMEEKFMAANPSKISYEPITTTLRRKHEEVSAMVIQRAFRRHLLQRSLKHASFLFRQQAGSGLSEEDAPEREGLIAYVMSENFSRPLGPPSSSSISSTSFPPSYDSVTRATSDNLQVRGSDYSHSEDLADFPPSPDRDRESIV
Method in brief: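 Whole-cell automated patch clamp at room temperature on HEK293 stably expressing human Nav1.5; holding −80 mV, 20 consecutive cardiomyocyte action-potential-like test pulses before and after compound (0.1% DMSO). Inhibition measured on inward current at 20th pulse; IC50 from concentration-response curve.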

[3] = human Nav1.7, automated patch clamp
[4] = human Nav1.5, automated patch clamp
[5] = HEK293A cells stably expressing human Nav1.7 and human Navβ1, automated patch clamp QPatch16X
[6] = HEK293 cells stably expressing human Nav1.5, automated patch clamp QPatch16X

Sequence of human Nav1.7 (Q15858 whole entry): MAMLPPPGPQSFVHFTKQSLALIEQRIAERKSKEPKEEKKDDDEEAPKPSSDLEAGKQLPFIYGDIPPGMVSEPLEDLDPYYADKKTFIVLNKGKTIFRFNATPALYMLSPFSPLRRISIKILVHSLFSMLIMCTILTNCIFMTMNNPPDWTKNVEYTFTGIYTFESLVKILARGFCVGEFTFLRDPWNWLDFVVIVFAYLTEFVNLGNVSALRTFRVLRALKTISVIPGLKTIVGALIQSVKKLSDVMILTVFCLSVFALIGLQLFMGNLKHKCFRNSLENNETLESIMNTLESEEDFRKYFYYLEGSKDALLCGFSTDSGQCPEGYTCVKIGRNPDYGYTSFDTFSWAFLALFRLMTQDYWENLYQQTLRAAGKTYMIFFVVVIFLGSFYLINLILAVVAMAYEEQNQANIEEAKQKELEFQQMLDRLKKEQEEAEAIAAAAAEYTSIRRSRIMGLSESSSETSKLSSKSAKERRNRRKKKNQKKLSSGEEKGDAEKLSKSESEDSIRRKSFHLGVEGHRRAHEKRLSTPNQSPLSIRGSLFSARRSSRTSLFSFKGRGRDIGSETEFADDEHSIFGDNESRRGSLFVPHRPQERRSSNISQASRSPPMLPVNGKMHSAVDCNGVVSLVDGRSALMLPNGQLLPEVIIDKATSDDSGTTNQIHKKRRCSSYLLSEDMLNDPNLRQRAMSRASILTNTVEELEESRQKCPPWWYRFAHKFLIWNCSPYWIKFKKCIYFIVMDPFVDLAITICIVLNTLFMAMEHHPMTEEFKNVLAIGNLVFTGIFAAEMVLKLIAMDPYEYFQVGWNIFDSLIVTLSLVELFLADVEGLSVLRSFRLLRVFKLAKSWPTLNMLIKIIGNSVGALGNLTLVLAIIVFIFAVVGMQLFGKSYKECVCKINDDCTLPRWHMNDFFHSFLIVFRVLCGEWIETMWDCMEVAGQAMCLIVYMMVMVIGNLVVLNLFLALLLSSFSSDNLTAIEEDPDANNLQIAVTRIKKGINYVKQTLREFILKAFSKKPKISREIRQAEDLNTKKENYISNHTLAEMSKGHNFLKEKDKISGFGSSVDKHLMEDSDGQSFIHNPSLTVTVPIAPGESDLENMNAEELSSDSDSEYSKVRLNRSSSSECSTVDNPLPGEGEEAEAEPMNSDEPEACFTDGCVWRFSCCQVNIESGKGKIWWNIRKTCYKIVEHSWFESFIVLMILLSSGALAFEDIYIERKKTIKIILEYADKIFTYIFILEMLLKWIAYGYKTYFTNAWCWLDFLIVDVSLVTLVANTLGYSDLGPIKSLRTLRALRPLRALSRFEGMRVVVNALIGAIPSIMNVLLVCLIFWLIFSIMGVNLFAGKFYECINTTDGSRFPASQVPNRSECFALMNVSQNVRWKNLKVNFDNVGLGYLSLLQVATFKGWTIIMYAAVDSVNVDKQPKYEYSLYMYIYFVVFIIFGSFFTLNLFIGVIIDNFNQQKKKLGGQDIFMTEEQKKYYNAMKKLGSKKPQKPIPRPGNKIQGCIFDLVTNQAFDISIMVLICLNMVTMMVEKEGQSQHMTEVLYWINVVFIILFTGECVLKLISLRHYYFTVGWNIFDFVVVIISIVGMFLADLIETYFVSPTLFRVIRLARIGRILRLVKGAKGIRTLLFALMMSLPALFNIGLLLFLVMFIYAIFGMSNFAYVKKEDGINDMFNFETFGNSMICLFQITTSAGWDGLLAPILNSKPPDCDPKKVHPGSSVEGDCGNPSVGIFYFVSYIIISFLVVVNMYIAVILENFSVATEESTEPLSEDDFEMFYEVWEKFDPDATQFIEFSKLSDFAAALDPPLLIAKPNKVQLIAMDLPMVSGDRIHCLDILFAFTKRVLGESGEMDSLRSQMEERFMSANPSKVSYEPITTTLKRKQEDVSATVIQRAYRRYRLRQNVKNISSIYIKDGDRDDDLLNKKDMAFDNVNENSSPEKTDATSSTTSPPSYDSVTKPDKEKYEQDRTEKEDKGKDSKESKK
Sequence of human Nav1.7 (Q07699 19-218 partner): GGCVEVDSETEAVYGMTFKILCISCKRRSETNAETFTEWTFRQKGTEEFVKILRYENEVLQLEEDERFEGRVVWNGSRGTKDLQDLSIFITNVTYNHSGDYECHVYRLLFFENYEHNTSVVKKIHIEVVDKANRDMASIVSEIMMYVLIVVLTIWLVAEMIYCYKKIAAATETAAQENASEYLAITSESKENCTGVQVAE

IC50 [1, 3]	IC50 [1, 5]	Compound	IC50 [2, 4]	IC50 [2, 6]
< 1 µM	–	O=C(N[C@H]1COc2ccc(C(F)(F)F)cc2C1O)c1cc2n(n1)CC(CCCOCC(F)F)O2 (single isomer, unassigned) [608 (isomer B)]	≥ 3 µM	–
< 1 µM	–	O=C(N[C@H]1COc2ccc(C(F)(F)F)cc2C1O)c1cc2n(n1)CC(CCCOCC(F)F)O2 (single isomer, unassigned) [610 (isomer A)]	≥ 3 µM	–
< 1 µM	–	O=C(N[C@H]1COc2ccc(COCC(F)(F)F)cc2C1)c1cc2n(n1)CCC(C1CCOCC1)O2 (single isomer, unassigned) [615 (isomer A)]	1 to 3 µM	–
< 1 µM	–	O=C(N[C@H]1COc2ccc(COCC(F)(F)F)cc2C1)c1cc2n(n1)CCC(C1CCOCC1)O2 (single isomer, unassigned) [615 (isomer B)]	≥ 3 µM	–
< 1 µM	–	O=C(N[C@H]1COc2ccc(C(F)(F)F)cc2C1O)c1cc2n(n1)CC(CCCOCC(F)(F)F)O2 (single isomer, unassigned) [616 (isomer A)]	1 to 3 µM	–
< 1 µM	–	N#Cc1ccc2c(c1)C(F)[C@@H](NC(=O)c1cc3n(n1)CCC(COCC1CC1)O3)CO2 (single isomer, unassigned) [617 (isomer A)]	≥ 3 µM	–
< 10 µM	–	N#Cc1ccc2c(c1)C(F)[C@@H](NC(=O)c1cc3n(n1)CCC(COCC1CC1)O3)CO2 (single isomer, unassigned) [617 (isomer C)]	≥ 3 µM	–
< 1 µM	–	O=C(N[C@H]1COc2ccc(COCC(F)(F)F)cc2C1)c1cc2n(n1)CC(CC1CCOCC1)O2 (single isomer, unassigned) [622 (isomer A)]	≥ 3 µM	–
–	< 1 µM	O=C(N[C@H]1COc2ccc(Cl)cc2C1)c1cn2c(n1)CCC(C(F)(F)F)C2 (single isomer, unassigned) [Example 2 (isomer A)]	–	1 to 3 µM
–	< 1 µM	O=C(N[C@H]1COc2ccc(Cl)cc2C1)c1cn2c(n1)CCC(C(F)(F)F)C2 (single isomer, unassigned) [Example 2 (isomer B)]	–	≥ 3 µM
–	< 10 µM	CN(C(=O)c1cn2c(n1)CCC(C(F)(F)F)C2)[C@H]1COc2ccc(Cl)cc2C1 (single isomer, unassigned) [Example 4]	–	≥ 3 µM
< 10 µM	–	O=C(N[C@H]1COc2ccc(C(F)(F)F)cc2C1O)c1cc2n(n1)CCC(COCC(F)(F)F)CO2 (single isomer, unassigned) [Example 683]	≥ 3 µM	–
–	< 10 µM	O=C(NC1COc2ccc(F)cc2C1)c1cn2c(n1)CCC(C(F)(F)F)C2 (stereo not drawn) [Example 1, N-(6-fluorochroman-3-yl)-6-(trifluoromethyl)-5,6,7,8-tetrahydroimidazo[1,2-a]pyridine-2-carboxamide]	–	≥ 3 µM
–	< 1 µM	CN(C(=O)c1cn2c(n1)CCC(C(F)(F)F)C2)[C@H]1COc2ccc(Cl)cc2C1 (stereo partly drawn) [Example 3]	–	1 to 3 µM
–	< 1 µM	O=C(N[C@H]1COc2ccc(Br)cc2C1)c1cn2c(n1)CCC(C(F)(F)F)C2 (stereo partly drawn) [Example 5]	–	1 to 3 µM
–	< 10 µM	O=C(N[C@H]1COc2ccc(C(F)F)cc2C1)c1cn2c(n1)CCC(C(F)(F)F)C2 (stereo partly drawn) [Example 6]	–	1 to 3 µM
–	< 1 µM	O=C(NC1COc2cccc(Cl)c2C1)c1cn2c(n1)CCC(C(F)(F)F)C2 (stereo not drawn) [Example 8]	–	≥ 3 µM
–	< 1 µM	CCc1ccc2c(c1)C[C@@H](NC(=O)c1cn3c(n1)CCC(C(F)(F)F)C3)CO2 (stereo partly drawn) [Example 11]	–	≥ 3 µM
–	< 1 µM	O=C(NC1COc2ccc(Br)cc2C1)c1cn2c(n1)CCC(C(F)(F)F)C2 (stereo not drawn) [Example 12]	–	1 to 3 µM
–	< 10 µM	O=C(N[C@H]1COc2ccccc2C1)c1nc2n(c1I)CC(C(F)(F)F)CC2 (stereo partly drawn) [Example 14, N—((R)-chroman-3-yl)-3-iodo-6-(trifluoromethyl)-5,6,7,8-tetrahydroimidazo[1,2-a]pyridine-2-carboxamide]	–	≥ 3 µM
–	< 1 µM	O=C(N[C@H]1COc2ccccc2C1)c1nc2n(c1-c1ccccc1)CCCC2 [Example 16]	–	< 1 µM
–	< 1 µM	COc1cccc(-c2c(C(=O)N[C@H]3COc4ccc(Cl)cc4C3)nc3n2CCCC3)n1 [Example 17, (R)—N-(6-chlorochroman-3-yl)-3-(6-methoxypyridin-2-yl)-5,6,7,8-tetrahydroimidazo[1,2-a]pyridine-2-carboxamide]	–	1 to 3 µM
–	< 1 µM	O=C(N[C@H]1COc2ccc(C(F)(F)F)cc2C1)c1nc2n(c1-c1ccn[nH]1)CCCC2 [Example 19]	–	< 1 µM
–	< 1 µM	O=C(N[C@H]1COc2ccc(COCC(F)(F)F)cc2C1)c1nc2n(c1-c1ccn[nH]1)CCCC2 [Example 20]	–	< 1 µM

IC50 [1, 3]	IC50 [1, 5]	Compound	IC50 [2, 4]	IC50 [2, 6]
–	< 10 µM	O=C(NCCc1cccc(C(F)(F)F)c1)c1nc2n(c1-c1ccccc1)CCCC2 [Example 22]	–	≥ 3 µM
–	< 10 µM	CCC1CCc2nc(C(=O)N[C@H]3COc4ccccc4C3)cn2C1 (stereo partly drawn) [Example 23]	–	≥ 3 µM
–	< 10 µM	O=C(N[C@H]1COc2ccccc2C1)c1nc2n(c1Cl)CC(c1ccccc1)CC2 (stereo partly drawn) [Example 25]	–	1 to 3 µM
–	< 10 µM	COc1ncccc1C1CCc2nc(C(=O)N3CCC(c4ccccc4)C3)cn2C1 (stereo not drawn) [Example 26]	–	≥ 3 µM
–	< 1 µM	COc1cccc(C2CCc3nc(C(=O)N[C@H]4COc5ccccc5C4)cn3C2)n1 (stereo partly drawn) [Example 27]	–	< 1 µM
–	< 10 µM	COc1cccc(OC2CCN(C(=O)c3cn4c(n3)CCC(C3CCCC3)C4)C2)n1 (stereo not drawn) [Example 28]	–	≥ 3 µM
–	< 10 µM	O=C(c1cn2c(n1)CCC(CCc1ccccc1)C2)N1CCC(Oc2ccccn2)C1 (stereo not drawn) [Example 29]	–	1 to 3 µM
–	< 10 µM	O=C(c1cn2c(n1)CCC(c1cccnc1C(F)(F)F)C2)N1CCC1Cc1ccccc1 (stereo not drawn) [Example 30]	–	≥ 3 µM
–	< 10 µM	COc1ncc(C(F)(F)F)cc1C1CCc2nc(C(=O)N3CCOC(c4ccc(F)cc4F)C3)cn2C1 (stereo not drawn) [Example 32]	–	1 to 3 µM
–	< 1 µM	O=C(N[C@H]1COc2ccccc2C1)c1cn2c(n1)CCC(COc1ccccc1)C2 (stereo partly drawn) [Example 33]	–	1 to 3 µM
–	< 10 µM	CC(C)(C)OCC1CCc2nc(C(=O)N[C@H]3COc4ccccc4C3)cn2C1 (stereo partly drawn) [Example 34]	–	≥ 3 µM
–	< 1 µM	O=C(N[C@H]1COc2ccccc2C1)c1cn2c(n1)CCC(C1(F)CCC1)C2 (stereo partly drawn) [Example 35]	–	1 to 3 µM
–	< 1 µM	CC(C)(C)C1CCc2nc(C(=O)N[C@H]3COc4ccccc4C3)cn2C1 (stereo partly drawn) [Example 36]	–	≥ 3 µM
–	< 10 µM	O=C(N[C@H]1COc2ccc(Cl)cc2C1)c1cn2c(n1)CCC(OCC(F)(F)F)C2 (stereo partly drawn) [Example 38]	–	≥ 3 µM
–	< 10 µM	CC(C)COC1CCc2nc(C(=O)N[C@H]3COc4ccccc4C3)cn2C1 (stereo partly drawn) [Example 41]	–	≥ 3 µM
–	< 10 µM	Cc1ccc(C2Cn3cc(C(=O)N[C@H]4COc5ccccc5C4)nc3CN2)s1 (stereo partly drawn) [Example 43]	–	≥ 3 µM
–	< 10 µM	O=C(N[C@H]1COc2ccccc2C1)c1cn2c(n1)CNC(c1cccc(C(F)(F)F)n1)C2 (stereo partly drawn) [Example 46]	–	1 to 3 µM
–	< 10 µM	CN1Cc2nc(C(=O)N[C@H]3COc4cccc(F)c4C3)cn2CC1c1cccc(C(F)(F)F)n1 (stereo partly drawn) [Example 47]	–	≥ 3 µM
–	< 10 µM	CC(C)CCC1Cn2cc(C(=O)N[C@H]3COc4ccccc4C3)nc2CN1 (stereo partly drawn) [Example 49]	–	≥ 3 µM
–	< 1 µM	O=C(N[C@H]1COc2ccccc2C1)c1cn2c(n1)CNC(CCC1CCCC1)C2 (stereo partly drawn) [Example 51]	–	1 to 3 µM
–	< 1 µM	CN1Cc2nc(C(=O)N[C@H]3COc4ccccc4C3)cn2CC1CCC1CCCC1 (stereo partly drawn) [Example 52]	–	1 to 3 µM
–	< 1 µM	O=C(N[C@H]1COc2ccccc2C1)c1cn2c(n1)CNC(CCCc1ccccc1)C2 (stereo partly drawn) [Example 55]	–	1 to 3 µM
–	< 1 µM	CN1Cc2nc(C(=O)NC3COc4ccccc4C3)cn2CC1c1ccccc1 (stereo not drawn) [Example 57]	–	< 1 µM
–	< 10 µM	CN1Cc2nc(C(=O)NCCc3ccccc3)cn2CC1c1ccccc1 (stereo not drawn) [Example 58]	–	≥ 3 µM

Compound	IC50 [1, 3]	IC50 [1, 5]	IC50 [2, 4]	IC50 [2, 6]
N#Cc1ccc2c(c1)C[C@@H](NC(=O)c1cc3n(n1)CC[C@H](COCC(F)(F)F)CO3)CO2 (single isomer, unassigned; isomer a) [572(isomer A)]	< 10 µM	–	≥ 3 µM	–
O=C(N[C@H]1COc2ccc(C(F)(F)F)cc2C1O)c1cc2n(n1)CC[C@H](COCC1CC1)O2 (single isomer, unassigned; isomer a) [575(isomer A)]	< 1 µM	–	1 to 3 µM	–
O=C(N[C@H]1COc2ccc(C(F)(F)F)cc2C1O)c1cc2n(n1)C[C@H](COCC1CC1)O2 (single isomer, unassigned; isomer a) [576(isomer A)]	< 1 µM	–	≥ 3 µM	–
O=C(N[C@H]1COc2ccc(C(F)(F)F)cc2C1F)c1cc2n(n1)CC[C@H](C(F)F)O2 (single isomer, unassigned; isomer a) [579(isomer A)]	< 1 µM	–	1 to 3 µM	–
COC1c2cc(C(F)(F)F)ccc2OC[C@@H]1NC(=O)c1cc2n(n1)CC(COCC(F)(F)F)O2 (single isomer, unassigned; isomer a) [597(isomer A)]	< 1 µM	–	≥ 3 µM	–
COC1c2cc(C(F)(F)F)ccc2OC[C@@H]1NC(=O)c1cc2n(n1)CC(COCC(F)(F)F)O2 (single isomer, unassigned; isomer b) [597(isomer B)]	< 1 µM	–	1 to 3 µM	–
